# Literature values in patent US11142559B2, “Glucagon derivative, conjugate thereof, composition comprising same, and therapeutic use thereof” (HANMI PHARM. CO., LTD, priority 2016, dated 2021).
# Conditions: when taken for one year, according to a report
smiles,measurement,value
CCCCCCCCCCC[C@@H](C[C@@H]1OC(=O)[C@H]1CCCCCC)OC(=O)[C@H](CC(C)C)NC=O [Orlistat],weight loss,about 4 kg
